Legend:
[1] = molecular target: rat brain synaptic membranes; conditions: binding on rat brain synaptic membranes; cited from earlier work
[2] = tested on: human brain neurotensin receptors; conditions: cited from earlier work
[3] = cited from earlier work
[4] = molecular target: neurotensin receptor sites; assay: inhibition of [3H]neurotensin binding to guinea pig forebrain membranes
Protocol: Binding assays are performed by studying the inhibition of [^3 H]neurotensin binding to guinea pig forebrain membranes. The following results are obtained, using the unlabelled acetyl compound […]-OH (SEQ ID NO:4) (a) as the reference.

[5] = enzymatic stability in vitro in human serum; type: in vitro ADME
Protocol: The enzymatic stability of the four radioiodinated analogues (1), (2), (3) and (4) is determined in vitro in human serum in a conventional manner, showing that this stability is sufficient.

## monoiodo-[Trp^11 ]-neurotensin (QLYENKPRRPWIL; Neurotensin 125I on Tyr3; UniProt P30990 151-163, looked up, variant Y11W) [monoiodo-[Trp11]-neurotensin]
[1]
  Kd: 0.1 nM
[2]; preliminary experiments, Sadoul et al. 1984
  affinity of neurotensin receptors in human brain: low affinity
[3]
  in vivo half-life: only a few minutes

## mono-iodo derivative of neurotensin: mono-iodo derivative of neurotensin itself; only tyrosine-3 iodinated with 125-iodide
[1]
  Kd: 0.2 nM
[2]; binding to human brain neurotensin receptors
  Kd: 0.26 nM
[3]
  in vivo half-life: only a few minutes

## (2-*I-phenyl)acetyl-^1 Arg-^2 Arg-^3 Pro-^4 Tyr-^5 Ile-^6 Leu-OH [(1)]
[4]
  pIC50: 8.05
[5]
  enzymatic stability: sufficient

## 2-*I-benzoyl-^1 Arg-^2 Arg-^3 Pro-^4 Tyr-^5 Ile-^6 Leu-OH [(3)]
[4]
  pIC50: 8.07
[5]
  enzymatic stability: sufficient

## 4-*I-benzoyl-^1 Arg-^2 Arg-^3 Pro-^4 Tyr-^5 Ile-^6 Leu-OH [(4)]
[4]
  pIC50: 8.10
[5]
  enzymatic stability: sufficient

## (4*I-phenyl)acetyl-^1 Arg-^2 Arg-^3 Pro-^4 Tyr-^5 -Ile-^6 Leu-OH [(2)]
[4]
  pIC50: 7.87
[5]
  enzymatic stability: sufficient
